Tests used:
AsPC-1 = assay: LDH assay, H-1PV with or without VPA, PDAC cells; conditions: AsPC-1 (printed AP-1), 72 hours, H-1PV at various MOI, FIG. 7
Experimental: (§1) APC-1 and Capan-1 cells were plated in 96 wells plates (2000 cells/well). After 16 hours, cell were infected with H-1PV at the indicated MOI and grown in the presence or absence of VPA for additional 72 hours. Cellular lysis was measured by LDH assay.
(§2) Parvovirus cytotoxicity was measured by evaluating the release of lactate dehydrogenase in the medium using the CytoTox 96 kit from Promega (Mannheim, Germany). The day before infection, 2000 cells were seeded per well in 96-well plate in 50 μl of culture medium. After 24 hours, cells were infected with 50 μl of serum-free medium containing H-1PV or treated with HDAC inhibitors in 7 replicates per condition. The day of measurement, 3 out of 7 wells were incubated for 30 minutes with lysis buffer to estimate the maximum LDH release under conditions of 100% lysis. Afterwards, the plate was centrifuged and 50 μl of supernatant were mixed with the substrate mix. The LDH enzyme catalyzes a colorimetric reaction that is indicative of the amount of enzyme released in the medium. After 30 minutes, the reaction was stopped and analyzed using the Elisa reader MultiScan at 492 nm.
(§3) Cells were seeded in 96 wells plate and then infected with various concentrations of H-1PV in the presence or absence of the HDACI Valproic acid (VPA).

Capan-1 = assay: LDH assay, H-1PV with or without VPA, PDAC cells; conditions: 72 hours, H-1PV at various MOI, FIG. 7
Experimental: as §1, §2, §3

HeLa established tumors = type: in vivo, nude rat; conditions: VPA 100 mg/kg; compared with mock-treated controls
Source text: Data shown represents the average values with standard deviation bars.

[1] = tested on: cervical carcinoma cell cultures (HeLa, CaSki, SiHa, CxCa); assay: LDH assay, H-1PV with or without HDACI, statements over all cervical cultures; type: cell-based, human; conditions: VPA 1 mM, 72 h, FIG. 5
Experimental: Cervical cancer derived cell lines (HeLa, CaSki, SiHa) and non-established cervical cancer cell cultures (CxCa) were infected with H-1PV at the indicated MOIs (pfu/cell) and grown for 72 h in the presence (grey bars) or absence (white bars) of VPA (1 mM). After incubation, cell lysis was evaluated by measuring the release of lactate dehydrogenase (LDH). Hatched bars at the right hand side of each chart show the minimal dose of H-1PV able to kill 90-100% of the cancer cells as monotherapy.
The sub-lethal dose of VPA boosted parvovirus-induced cell killing in a synergistic manner, increasing by up to 50-100%. […] Similar results were also obtained combining H-1PV with NaB, TSA or SaHa (Table 2).

What does the source list for `CCCC(CCC)C(=O)O` [VPA, valproic acid]?
cell lysis / cytotoxicity (LDH assay) (AsPC-1): no effect; cell lysis / cytotoxicity (LDH assay) (Capan-1): no effect; tumour growth (HeLa established tumors): failed to impair tumour growth; effect on cellular growth when applied singly [1]: did not have any significant effect
